Measurements taken from US12202805B2, “Process for preparing (5S)-{[2-(4-carboxyphenyl)ethyl] |2-(2-{|3-chloro-4'-(trifluoromethyl)biphenyl-4-yl]methoxy}phenyl)ethyl]aminol-5,6,7,8-tetrahydroquinoline-2-carboxylic acid and its crystalline forms for use as pharmaceutically active compound” (Bayer Aktiengesellschaft, priority 2021, dated 2025).

Experiments:
[1] = test system: thromboxane A2 challenged PAH-minipig; test: Haemodynamics in the anesthetized thromboxane challenged minipig, intratracheal dry powder (PAP, BP); format: in vivo, Göttingen Minipigs
Method: Healthy Göttingen Minipigs® Ellegaard (Ellegaard, Denmark) of both sexes and having a weight of 2-6 kg were used. The animals were sedated by i.m. administration of about 25 mg/kg ketamine and about 10 mg/kg azaperone. Anaesthesia was initiated by i.v. administration of about 2 mg/kg ketamine and about 0.3 mg/kg midazolam. Maintenance of anaesthesia was by i.v. administration of about 7.5-30 mg/kg/h ketamine and about 1-4 mg/kg/h midazolam (rate of infusion 1-4 ml/kg/h) and about 150 μg/kg/h pancuronium bromide (for example Pancuronium-Actavis). After intubation, the animals were ventilated by the ventilator at a constant respiratory volume (10-12 ml/kg, 35 breaths/min; Avea®, Viasys Healthcare, USA, or Engström Carestation, GE Healthcare, Freiburg, Germany) such that an end-tidal CO2 concentration of about 5% was achieved. Ventilation was performed with room air, enriched with about 40% oxygen (normoxia). For the measurement of the haemodynamic parameters such as pulmonary arterial pressure (PAP), blood pressure (BP) and heart rate (HR), catheters were inserted into the carotid artery to measure the blood pressure, and a Swan-Ganz® catheter was introduced in a flow-directed manner via the jugular vein into the pulmonary artery. The haemodynamic signals were recorded and evaluated by means of pressure transducers (Combitransducer, B. Braun, Melsungen, Germany)/amplifiers and Ponemah® as data acquisition software.
As reference pure Lactose vehicle was applied in the beginning of each experiment.

[2] = Filter experiments for deposited lung dose in the PAH minipig model and prediction of human dose; format: in vivo
Method: The anesthetized thromboxane A2 challenged PAH-minipig model (see experimental part E-1) is considered to be the most relevant and sensitive model for the prediction of the human minimal effective and effective doses (MED, ED). To determine effective LDs, experiments were repeated with the difference that absorbing filters were attached at the end of the tubes to determine the deposited lung dose. […] Assuming a minimal effective ND of 3 μg/kg (5% reduction in PAP) the minimal effective deposited LD is considered as 0.15 μg/kg.
The nominal doses of 3, 10, 30 and 100 μg/kg of the minipig model were multiplied by the filter deposition factor of 5% resulting in 0.15, 0.5, 1.5 and 5 μg/kg lung deposited doses in the minipig. These values were multiplied by 60 kg to achieve the lung dose in humans. Thus, the FPD reflecting the PAP reduction for a 60 kg human are calculated to be 9, 30, 90 and 300 μg.
Thus, via a direct up-scaling from minipig, the predictive MED (5% PAP reduction) for a human based on a 60 kg body weight is calculated to be 9 μg LDD, not considering protein binding within the respiratory tract. As a surrogate for unbound concentrations, which are the likely active concentrations in the lung, we considered respective differences in fractions unbound in plasma of minipig and human. […]

[3] = Protein binding via Transil assay, human plasma; format: in vitro ADME
Method: Protein Binding of Comparative Example 11 and Comparative Example 1 was Analyzed Via Transil Assay, Described Below.
The distribution of a test substance between Transil® (phosphatidylcholine lipid bilayers immobilized on silica beads) and plasma is a characteristic feature of any pharmaceutical compound and is dependent on its extent of binding to plasma proteins. By comparing the distribution between Transil® and buffer with the distribution between Transil® and plasma of any species of interest, the unbound fraction in the plasma of the respective animal species can be calculated in vitro. The respective plasma and buffer concentrations were determined via a radioactivity analysis. A detailed description of the method and its validation was published by Schuhmacher et al. (2).

| SMILES | systemic blood pressure ([1]; 375 μg/kg i.t., within the last hour of the observation interval) | efficacy with regard to PAP reduction as well as systemic BP reduction ([1]; micronized hydrates, 1.5 mg/4 kg (=375 μg/kg) i.t.) | BP, % changes vs. prevalues ([1]; time 80 min, 375 μg/kg i.t.) [%] | BP, % changes vs. prevalues ([1]; time 130 min, 375 μg/kg i.t.) [%] | BP, % changes vs. prevalues ([1]; time 140 min, 375 μg/kg i.t.) [%] | BP, % changes vs. prevalues ([1]; time 200 min, 375 μg/kg i.t.) [%] | ratio of fraction unbound minipig/human ([2]; plasma) | fraction unbound ([3]; read-out: plasma fu (fraction unbound)) | MED ([1]; dry powder i.t., lower doses not applicable) [µg/kg] | minimal effective lung deposited dose for a human patient of 60 kg body weight ([2]; with or without effect of different protein binding) [µg] | free fraction, times lower than comparative example 1 [3] [times] |
| --- | --- | --- | --- | --- | --- | --- | --- | --- | --- | --- | --- |
| O=C(O)c1ccc(CCN(CCc2ccccc2OCc2ccc(-c3ccc(C(F)(F)F)cc3)cc2Cl)[C@H]2CCCc3nc(C(=O)O)ccc32)cc1 [example 2, (5S)—{[2-(4-Carboxyphenyl)ethyl][2-(2-{[3-chloro-4′-(trifluoromethyl)biphenyl-4-yl]methoxy}phenyl)-ethyl]amino}-5,6,7,8-tetrahydroquinoline-2-carboxylic acid as Monohydrate II] | slightly affected | comparable efficacy | 100.0 | 97.0 | 97.0 | 97.0 | 4.55 | 0.000764 | – | – | – |
| O=C(O)c1ccc(CCN(CCc2ccccc2OCc2ccc(-c3ccc(C(F)(F)F)cc3)cc2Cl)[C@H]2CCCc3nc(C(=O)O)ccc32)cc1 [comparative example 11, (5S)-5-{[2-(4-carboxyphenyl)ethyl][2-(2-{[3-chloro-4′-(trifluoromethyl)[biphenyl]-4-yl]methoxy}phenyl)ethyl]amino}-5,6,7,8-tetrahydroquinoline-2-carboxylic acid] | – | – | – | – | – | – | – | – | ≤ 7.5 | 9 to 41 | 2 |
